Assay results: ChEMBL document CHEMBL3600373, “Mapping Selective Inhibition of the Cancer-Related Carbonic Anhydrase IX Using Structure-Activity Relationships of Glucosyl-Based Sulfamates” (J Med Chem, 2015)

How the values were obtained:
Carbonic anhydrase 12 = Carbonic anhydrase 12 (Homo sapiens, UniProt O43570); assay: Inhibition of human recombinant CA12 expressed in Escherichia coli by stopped flow CO2 hydration assay
Carbonic anhydrase 9 [1] = target: T1, Carbonic anhydrase 9 (Homo sapiens, UniProt Q16790)
Description: Inhibition of human recombinant CA9 expressed in Escherichia coli by stopped flow CO2 hydration assay

Carbonic anhydrase 2 = Carbonic anhydrase 2 (Homo sapiens, UniProt P00918); assay: Binding affinity to human CA2
Carbonic anhydrase 9 [2] = target: T1, Carbonic anhydrase 9; assay: Binding affinity to human CA9

Chain of Carbonic anhydrase 12 (O43570 whole entry): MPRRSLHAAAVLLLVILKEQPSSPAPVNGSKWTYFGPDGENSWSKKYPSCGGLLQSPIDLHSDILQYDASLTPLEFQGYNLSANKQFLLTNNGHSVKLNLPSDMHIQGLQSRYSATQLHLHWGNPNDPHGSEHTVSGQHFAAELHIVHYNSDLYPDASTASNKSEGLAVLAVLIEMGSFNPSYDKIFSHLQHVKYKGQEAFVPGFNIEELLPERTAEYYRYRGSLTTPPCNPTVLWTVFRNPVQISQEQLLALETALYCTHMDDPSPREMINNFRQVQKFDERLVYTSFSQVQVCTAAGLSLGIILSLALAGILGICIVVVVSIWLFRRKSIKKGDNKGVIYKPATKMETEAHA

Row | Ki (Carbonic anhydrase 12) [nM] | Ki (Carbonic anhydrase 9 [1]) [nM] | Kd (Carbonic anhydrase 2) [mM] | Kd (Carbonic anhydrase 9 [2]) [mM] | Compound
1 | 9 | 2 | – | – | CC(=O)OC[C@H]1O[C@@H](S(=O)(=O)NCCCCCOS(N)(=O)=O)[C@H](OC(C)=O)[C@@H](OC(C)=O)[C@@H]1OC(C)=O
2 | – | – | 450 | 150 | OC[C@H]1O[C@@](CO)(O[C@H]2O[C@H](CO)[C@@H](O)[C@H](O)[C@H]2O)[C@@H](O)[C@@H]1O [SUCROSE]
